Assay results from patent US20090298708A1, “2'-DEOXY-2'-FLUORO-BETA-D-ARABINONUCLEOSIDE 5'-TRIPHOSPHATES AND THEIR USE IN ENZYMATIC NUCLEIC ACID SYNTHESIS” (priority 2006, published 2009).

What was measured:
[1] = biological target: T1, MMLV-RT (Moloney murine leukemia virus, UniProt P03355); experiment: Primer extension assay with MMLV-RT; format: biochemical; parameters: key to Incorporation of three 2′F-araTTP / 2′F-araCTP (incorporation efficiency) / Enzymatic activity during primer extension reactions: ++++: excellent (no pausing observed); +++: very good (with slight pausing); ++: Good, full-length products with significant pausing; +: significant pausing, no full-length product but at least one 2′F-araN incorporation detected; settings: for Order of efficiency of incorporation: DNA template PF22 (T/U triphosphates) or PF24 (C triphosphates), three contiguous units; for Enzymatic activity during primer extension reactions: plus dATP, dGTP; for Incorporation of three 2′F-araTTP / 2′F-araCTP (incorporation efficiency): DNA template PF22 (2′F-araTTP) or PF24 (2′F-araCTP)
T1 construct: Reverse transcriptases (RT): • MMLV-RT (MMLV or MM; source: Fermentas); purchased Fermentas
Source text: (§1) Primer extension assays were used to assess the incorporation of 2′F-araNTP on the various DNA templates (Table 1). The DNA primer (PF20) was first radioactively labeled at the 5′-hydroxyl terminus with a radioactive phosphorus probe and the enzyme T4 polynucleotide kinase (T4 PNK) (see Example 1 for General Methods). To assess the incorporation of 2′F-araNTPs, the primer and template were annealed, and the nucleoside 5′-triphosphates added in the presence of enzyme under the conditions specified in Table 2. Time points were obtained by analyzing small aliquots from the reaction mixture through polyacryamide gel electrophoresis (PAGE) and autoradiography.
(§2) Primer extension assays were used to assess the incorporation efficiency of contiguous 2′F-ara(T/C)TPs compared to 2′F-r(U/C)TP on a DNA template (e.g. PF22 or PF24). To this end, a DNA template (e.g. PF22: FIGS. 15, 16, 17A, 18, 21A; PF24: FIGS. 17B, 19, 20, 21B), primer and the appropriate NTPs (e.g. combination of dATP/dCTP/dGTP/ and NTP, where N=dT, 2′F-araT, 2′F-rU, or rU (FIGS. 15, 16, 17A, 18, 21A); or combination of dATP/dGTP/dTTP/ and NTP, where N=dC, 2′F-araC, 2′F-rC, or rC (FIGS. 17B, 19, 20, 21B)), were incubated in the presence one of MMLV-RT, 9N, HIV or DV polymerase. The protocols and conditions are described in Example 2 and Table 2.
(§3) Unless otherwise noticed in the Examples described below, the conditions used in the primer extension assays, such as dNTP concentration, reaction temperatures, concentration of Mg^2+, and reaction buffers (provided by the manufacturers, except for the HIV buffer which was prepared in-house) are shown in Table 2.
(§4) Primer extension assays were used to assess the incorporation of 2′F-araTTP on the DNA template (PF22). The DNA primer (PF20) was first radioactively labeled at the 5′-hydroxyl terminus with a radioactive phosphorus probe and the enzyme T4 polynucleotide kinase (T4 PNK) according to the manufacturer's specifications (MBI Fermentas Life Sciences, Burlington, ON). Incorporation of the ^32P label was accomplished in reaction mixtures consisting of DNA substrate (200 pmol), 2 μl loxreaction buffer (Buffer A for forward reaction: 500 mM Tris-HCl, pH 7.6 at 25° C., 100 mM MgCl2, 50 mM DTT, 1 mM spermidine and 1 mM EDTA), 1 μl T4 PNK enzyme solution (10 U/1 μl in a solution of 20 mM Tris-HCl, pH 7.5, 25 mM KCl, 0.1 mM EDTA, 2 mM DTT and 50% glycerol), 6 μl [γ-^32P]-ATP solution (6000 Ci/mmol, 10 mCi/ml; Amersham Biosciences, Inc.) and autoclaved sterile water to a final volume of 20 μl. The reaction mixture was incubated for about 45-60 min at 37° C., followed by a second incubation for 10 min at 95° C. to heat denature and deactivate the kinase enzyme. The solution was purified according to a standard protocol and the isolated yield of 5′-^32P-DNA following gel extraction averages 50%. The pure labeled samples were kept at −20° C. for future use.
(§5) Usually 2 or 3 folds of cold (unlabeled) DNA primer were combined with the radioactive primer. Then primer to template was mixed together with the final concentration at 85 nM for the primer and 255 nM for the template (i.e. the primer:template=1:3 molar ratio). The primer and template were heated at 95° C. for 5 min and annealed at 4° C. for at least two hours before use. In an Eppendorf tube, the following reagents, 5× or 10× buffer, nucleoside 5′-triphosphates (DATP, dGTP, dCTP, 2′F-araTTP at the same concentrations; see legend of FIG. 2), water, the primer and template mixture, were added together according to pre-calculated reaction volume (20 μL) and concentrations (see reaction conditions in Table 2). Mineral oil (20 μL) was usually used to prevent evaporation. The reaction mixture was incubated at either 37° C. or 55° C. and one of the various enzymes tested was added to initiate the primer extension reactions. […]

[2] = biological target: T2, HIV-1 RT (recombinant) (Human immunodeficiency virus type 1 group M subtype B, UniProt P04585); experiment: Primer extension assay with HIV-1 RT; format: biochemical; parameters: key to Incorporation of three 2′F-araTTP / 2′F-araCTP (incorporation efficiency) / Enzymatic activity during primer extension reactions: ++++: excellent (no pausing observed); +++: very good (with slight pausing); ++: Good, full-length products with significant pausing; +: significant pausing, no full-length product but at least one 2′F-araN incorporation detected; settings: for Order of efficiency of incorporation / Incorporation of three 2′F-araTTP / 2′F-araCTP (incorporation efficiency) / Enzymatic activity during primer extension reactions: 37° C.; for Order of efficiency of incorporation: DNA template PF22 (T/U triphosphates) or PF24 (C triphosphates), three contiguous units; for Incorporation of three 2′F-araTTP / 2′F-araCTP (incorporation efficiency): DNA template PF22 (2′F-araTTP) or PF24 (2′F-araCTP); for Enzymatic activity during primer extension reactions: plus dATP, dGTP
T2 construct: Reverse transcriptases (RT): • MMLV-RT (MMLV or MM; source: Fermentas); • HIV-1 RT (recombinant); purchased Worthington Biochemical Corp
Source text: as §1, §2, §3, §4, §5

| SMILES | Order of efficiency of incorporation ([1]; MMLV-RT, 37° C.) | Order of efficiency of incorporation [2] | Incorporation of three 2′F-araTTP / 2′F-araCTP (incorporation efficiency) ([1]; MMLV, 37° C.) | Incorporation of three 2′F-araTTP / 2′F-araCTP (incorporation efficiency) [2] | also measured |
| --- | --- | --- | --- | --- | --- |
| Nc1ccn([C@H]2C[C@H](O)[C@@H](COP(=O)(O)OP(=O)(O)OP(=O)(O)O)O2)c(=O)n1 [dCTP] | dCTP~2′F-rCTP ≧ 2′F-araCTP > CTP | dCTP~2′F-rCTP ≧ 2′F-araCTP > CTP | – | – | – |
| Cc1cn([C@H]2C[C@H](O)[C@@H](COP(=O)(O)OP(=O)(O)OP(=O)(O)O)O2)c(=O)[nH]c1=O [dTTP, reference compound] | dTTP > 2′F-araTTP > 2′F-rUTP > UTP | dTTP > 2′F-araTTP > 2′F-rUTP > UTP | – | – | – |
| Nc1ccn([C@@H]2O[C@H](COP(=O)(O)OP(=O)(O)OP(=O)(O)O)[C@@H](O)[C@@H]2F)c(=O)n1 [2′F-araCTP, 1-(2-deoxy-2-fluoro-β-D-arabinofuranosyl)cytosine 5′-triphosphate] | dCTP~2′F-rCTP ≧ 2′F-araCTP > CTP | dCTP~2′F-rCTP ≧ 2′F-araCTP > CTP | ++++ | ++++ | Enzymatic activity during primer extension reactions ([1]; Example 3, DNA template PF24, 3x 2′F-araCTP, dTTP, MMLV, 37° C.): +++; premature products ([1]; MMLV-RT, DNA template PF24, after 60 mins, 37° C.): ca. 90%; Enzymatic activity during primer extension reactions ([2]; Example 3, DNA template PF24, 3x 2′F-araCTP, dTTP): ++++ |
| Cc1cn([C@@H]2O[C@H](COP(=O)(O)OP(=O)(O)OP(=O)(O)O)[C@@H](O)[C@@H]2F)c(=O)[nH]c1=O [2′F-araTTP, 1-(2-deoxy-2-fluoro-β-D-arabino-furanosyl)thymine 5′-triphosphate] | dTTP > 2′F-araTTP > 2′F-rUTP > UTP | dTTP > 2′F-araTTP > 2′F-rUTP > UTP | +++ | ++++ | Enzymatic activity during primer extension reactions ([1]; Example 2, DNA template PF22, 3x 2′F-araTTP, dCTP, MMLV, 37° C.): +++; substrate property for MMLV (second incorporations of modified triphosphates) ([1]; MMLV, DNA template PF22, compared to 2′F-rUTP and rUTP): best substrate; substrate property for HIV RT ([2]; DNA template PF22, compared to 2′F-rUTP and rUTP): excellent substrate; Enzymatic activity during primer extension reactions ([2]; Example 2, DNA template PF22, 3x 2′F-araTTP, dCTP): ++++ |
| Nc1ccn([C@@H]2O[C@H](COP(=O)(O)OP(=O)(O)OP(=O)(O)O)[C@@H](O)[C@H]2F)c(=O)n1 [2′F-rCTP, 1-(2-deoxy-2-fluoro-β-D-ribofuranosyl) cytosine 5′-triphosphate, reference compound] | dCTP~2′F-rCTP ≧ 2′F-araCTP > CTP | dCTP~2′F-rCTP ≧ 2′F-araCTP > CTP | – | – | full-length product ([1]; MMLV-RT, DNA template PF24, 37° C.): ~100% |
| O=c1ccn([C@@H]2O[C@H](COP(=O)(O)OP(=O)(O)OP(=O)(O)O)[C@@H](O)[C@H]2F)c(=O)[nH]1 [2′F-rUTP, 1-(2-deoxy-2-fluoro-β-D-ribo-furanosyl)uracil 5′-triphosphate, reference compound] | dTTP > 2′F-araTTP > 2′F-rUTP > UTP | dTTP > 2′F-araTTP > 2′F-rUTP > UTP | – | – | – |
